# Measurements as given in PubChem BioAssay (NCI).
#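 GI50 is the concentration that inhibits growth by half. TGI marks complete inhibition of growth.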
# Legend:
# Experiment in all cases: growth of human tumour cells (NCI), 384-well format
# RPMI-8226 leukemia = test system: RPMI-8226 leukemia
# RXF 393 renal = test system: RXF 393 renal
# M14 melanoma = test system: M14 melanoma
# MDA-MB-435 melanoma = test system: MDA-MB-435 melanoma
# A498 renal = test system: A498 renal
# COLO 205 colon = test system: COLO 205 colon
# NCI-H460 NSCLC = test system: NCI-H460 NSCLC
# MOLT-4 leukemia = test system: MOLT-4 leukemia
# HOP-62 NSCLC = test system: HOP-62 NSCLC
# OVCAR-5 ovarian = test system: OVCAR-5 ovarian
# UACC-257 melanoma = test system: UACC-257 melanoma
# KM12 colon = test system: KM12 colon
# UO-31 renal = test system: UO-31 renal
# CCRF-CEM leukemia = test system: CCRF-CEM leukemia
# UACC-62 melanoma = test system: UACC-62 melanoma
# U251 glioblastoma = test system: U251 glioblastoma
# HT29 colon = test system: HT29 colon
# NCI-H226 lung = test system: NCI-H226 lung
# MDA-MB-231 breast = test system: MDA-MB-231 breast
# TK-10 renal = test system: TK-10 renal
# MDA-MB-468 breast = test system: MDA-MB-468 breast
# MCF7 breast = test system: MCF7 breast
# NCI/ADR-RES ovarian = test system: NCI/ADR-RES ovarian
# 786-0 renal = test system: 786-0 renal
# SK-MEL-28 melanoma = test system: SK-MEL-28 melanoma
# HL-60(TB) leukemia = test system: HL-60(TB) leukemia
# NCI-H322M lung = test system: NCI-H322M lung
# OVCAR-4 ovarian = test system: OVCAR-4 ovarian
# K-562 leukemia = test system: K-562 leukemia
# HCT-15 colon = test system: HCT-15 colon
# SF-295 CNS = test system: SF-295 CNS
# T-47D breast = test system: T-47D breast
# SW-620 colon = test system: SW-620 colon
# HCC-2998 colon = test system: HCC-2998 colon
# OVCAR-8 ovarian = test system: OVCAR-8 ovarian
# HCT-116 colon = test system: HCT-116 colon
# A549 NSCLC = test system: A549 NSCLC
# NCI-H522 lung = test system: NCI-H522 lung
# SK-OV-3 ovarian = test system: SK-OV-3 ovarian
# SK-MEL-5 melanoma = test system: SK-MEL-5 melanoma
# SF-268 CNS = test system: SF-268 CNS
# DU-145 prostate = test system: DU-145 prostate
# SNB-19 CNS = test system: SNB-19 CNS
# IGROV1 ovarian = test system: IGROV1 ovarian
# LOX IMVI melanoma = test system: LOX IMVI melanoma
# NCI-H23 lung = test system: NCI-H23 lung
# SN12C renal = test system: SN12C renal
# CAKI-1 renal = test system: CAKI-1 renal
# SF-539 CNS = test system: SF-539 CNS
# ACHN renal = test system: ACHN renal
# OVCAR-3 ovarian = test system: OVCAR-3 ovarian
# PC-3 prostate = test system: PC-3 prostate
# HOP-92 NSCLC = test system: HOP-92 NSCLC
# SR leukemia = test system: SR leukemia
# MALME-3M melanoma = test system: MALME-3M melanoma
# SK-MEL-2 melanoma = test system: SK-MEL-2 melanoma
# BT-549 breast = test system: BT-549 breast
smiles,measurement,setting,value
CC1(C)CCC(c2ccc(Cl)cc2)=C(CN2CCN(c3ccc(C(=O)NS(=O)(=O)c4ccc(N[C@H](CCN5CCOCC5)CSc5ccccc5)c(S(=O)(=O)C(F)(F)F)c4)cc3)CC2)C1,GI50,RPMI-8226 leukemia,82.1 nM
same,TGI,RPMI-8226 leukemia,207 nM
same,GI50,RXF 393 renal,17.4 nM
same,TGI,RXF 393 renal,325 nM
same,GI50,M14 melanoma,1830 nM
same,TGI,M14 melanoma,3.24 µM
same,GI50,MDA-MB-435 melanoma,1940 nM
same,TGI,MDA-MB-435 melanoma,3.39 µM
same,GI50,A498 renal,1160 nM
same,TGI,A498 renal,2390 nM
same,GI50,COLO 205 colon,1250 nM
same,TGI,COLO 205 colon,2510 nM
same,GI50,NCI-H460 NSCLC,1840 nM
same,TGI,NCI-H460 NSCLC,3.28 µM
same,GI50,MOLT-4 leukemia,22.1 nM
same,TGI,MOLT-4 leukemia,64 nM
same,GI50,HOP-62 NSCLC,2030 nM
same,TGI,HOP-62 NSCLC,3.49 µM
same,GI50,OVCAR-5 ovarian,1460 nM
same,TGI,OVCAR-5 ovarian,2840 nM
same,GI50,UACC-257 melanoma,1590 nM
same,TGI,UACC-257 melanoma,3.01 µM
same,GI50,KM12 colon,1760 nM
same,TGI,KM12 colon,3.23 µM
same,GI50,UO-31 renal,1370 nM
same,TGI,UO-31 renal,2670 nM
same,GI50,CCRF-CEM leukemia,69.8 nM
same,TGI,CCRF-CEM leukemia,198 nM
same,GI50,UACC-62 melanoma,1800 nM
same,TGI,UACC-62 melanoma,3.19 µM
same,GI50,U251 glioblastoma,1910 nM
same,TGI,U251 glioblastoma,3.39 µM
same,GI50,HT29 colon,1840 nM
same,TGI,HT29 colon,3.27 µM
same,GI50,NCI-H226 lung,1100 nM
same,TGI,NCI-H226 lung,2310 nM
same,GI50,MDA-MB-231 breast,316 nM
same,TGI,MDA-MB-231 breast,1170 nM
same,GI50,TK-10 renal,1660 nM
same,TGI,TK-10 renal,3.05 µM
same,GI50,MDA-MB-468 breast,1590 nM
same,TGI,MDA-MB-468 breast,3.08 µM
same,GI50,MCF7 breast,1880 nM
same,TGI,MCF7 breast,4.58 µM
same,GI50,NCI/ADR-RES ovarian,2800 nM
same,TGI,NCI/ADR-RES ovarian,7.69 µM
same,GI50,786-0 renal,1620 nM
same,TGI,786-0 renal,3.03 µM
same,GI50,SK-MEL-28 melanoma,1930 nM
same,TGI,SK-MEL-28 melanoma,3.39 µM
same,GI50,HL-60(TB) leukemia,195 nM
same,TGI,HL-60(TB) leukemia,893 nM
same,GI50,NCI-H322M lung,1880 nM
same,TGI,NCI-H322M lung,3.67 µM
same,GI50,OVCAR-4 ovarian,1270 nM
same,TGI,OVCAR-4 ovarian,2790 nM
same,GI50,K-562 leukemia,1940 nM
same,TGI,K-562 leukemia,3.35 µM
same,GI50,HCT-15 colon,1750 nM
same,TGI,HCT-15 colon,3.18 µM
same,GI50,SF-295 CNS,1750 nM
same,TGI,SF-295 CNS,3.14 µM
same,GI50,T-47D breast,1870 nM
same,TGI,T-47D breast,3.52 µM
same,GI50,SW-620 colon,940 nM
same,TGI,SW-620 colon,2120 nM
same,GI50,HCC-2998 colon,150 nM
same,TGI,HCC-2998 colon,765 nM
same,GI50,OVCAR-8 ovarian,1750 nM
same,TGI,OVCAR-8 ovarian,3.14 µM
same,GI50,HCT-116 colon,1600 nM
same,TGI,HCT-116 colon,2990 nM
same,GI50,A549 NSCLC,1630 nM
same,TGI,A549 NSCLC,3.12 µM
same,GI50,NCI-H522 lung,1850 nM
same,TGI,NCI-H522 lung,3.65 µM
same,GI50,SK-OV-3 ovarian,1960 nM
same,TGI,SK-OV-3 ovarian,3.48 µM
same,GI50,SK-MEL-5 melanoma,1660 nM
same,TGI,SK-MEL-5 melanoma,3.02 µM
same,GI50,SF-268 CNS,1880 nM
same,TGI,SF-268 CNS,3.36 µM
same,GI50,DU-145 prostate,2300 nM
same,TGI,DU-145 prostate,4.79 µM
same,GI50,SNB-19 CNS,2170 nM
same,TGI,SNB-19 CNS,4.02 µM
same,GI50,IGROV1 ovarian,1560 nM
same,TGI,IGROV1 ovarian,2990 nM
same,GI50,LOX IMVI melanoma,1950 nM
same,TGI,LOX IMVI melanoma,3.37 µM
same,GI50,NCI-H23 lung,1730 nM
same,TGI,NCI-H23 lung,3.13 µM
same,GI50,SN12C renal,2130 nM
same,TGI,SN12C renal,3.59 µM
same,GI50,CAKI-1 renal,2020 nM
same,TGI,CAKI-1 renal,3.46 µM
same,GI50,SF-539 CNS,1720 nM
same,TGI,SF-539 CNS,3.11 µM
same,GI50,ACHN renal,1800 nM
same,TGI,ACHN renal,3.2 µM
same,GI50,OVCAR-3 ovarian,1560 nM
same,TGI,OVCAR-3 ovarian,2900 nM
same,GI50,PC-3 prostate,1740 nM
same,TGI,PC-3 prostate,3.12 µM
same,GI50,HOP-92 NSCLC,135 nM
same,TGI,HOP-92 NSCLC,771 nM
same,GI50,SR leukemia,365 nM
same,TGI,SR leukemia,2040 nM
same,GI50,MALME-3M melanoma,1870 nM
same,TGI,MALME-3M melanoma,3.27 µM
same,GI50,SK-MEL-2 melanoma,1230 nM
same,TGI,SK-MEL-2 melanoma,2480 nM
same,GI50,BT-549 breast,1810 nM
same,TGI,BT-549 breast,3.23 µM
